The results in this text go back to patent publication US12458581B2, “Carboxylic acid loaded salt carrier and the method for producing thereof” (priority 2021, dated 2025).

One data set can be described thus: pH measurement of 0.1 M aqueous solutions. The settings on record: 0.1 M in millipore water, r.t., average of at least three measurements. The format is physicochemical. From the text: For the pH measurements, a Seven2Go portable pH meter S2 (pH measuring-range: −2 to 20; resolution: 0.01) with an InLab Ultra Micro-ISM electrode (measuring range: pH −1 to pH 11; low temperature membrane glass type; ceramic diaphragm; reference system with Ag^+ ion trap by argenthal) as well as with an in-lab routine pH electrode (measuring range: pH 0 to pH 14; ceramic diaphragm; reference system with Ag^+ ion trap by argenthal) from Mettler-Toledo AG (Analytical, Switzerland) was used.
For sake of comparability, compounds of the same loading ratio n=2, which is 2:1 of the loaded carboxylic acid with respect to the carrier carboxylic acid, were selected for this analysis. […] The analytes were dissolved in millipore water, stirred for 5 minutes in an airtight vial to perform the pH measurements thereafter at r.t. All measurements were performed at 0.1 molar (M) concentration of the samples, which is 0.1 mol per liter (mol/L).
For sake of reliability, every result stated is the average of at least three single measurements. […] The numbers 1-73 (nr., first row) are used as an assignment for the 73 pairs, comprising the compound of invention (third row), the corresponding carrier carboxylic acid (fourth row) and the loaded carboxylic acid (fifth row), as used in the FIG. 6.
The molecule `CC(=O)O.CC(=O)O.CC(=O)O.CC(=O)[O-].CC(=O)[O-].[Ca+2]` [CaAc-HAc [3]] had a pH values compound of 4.62.

As for `CC(=O)[O-].CC(=O)[O-].CCC(=O)O.CCC(=O)O.[Ca+2]` [CaAc-HProp [2]], the pH values compound is 5.16.

The molecule `CC(=O)O.CC(=O)O.O=C1OC(C(O)CO)C([O-])=C1O.O=C1OC(C(O)CO)C([O-])=C1O.[Ca+2]` (stereo not shown) [CaAsc-HAc [2], calcium ascorbate with loaded acetic acid] had a pH values compound of 4.42.

In turn, `CC(=O)O.CC(=O)O.CC(=O)O.O=C1OC(C(O)CO)C([O-])=C1O.O=C1OC(C(O)CO)C([O-])=C1O.[Ca+2]` (stereo not shown) [CaAsc-HAc [3], calcium ascorbate with loaded acetic acid] returned a pH values compound of 4.22.

For `CC(=O)O.CC(=O)O.CC(=O)O.CC(=O)O.O=C1OC(C(O)CO)C([O-])=C1O.O=C1OC(C(O)CO)C([O-])=C1O.[Ca+2]` (stereo not shown) [CaAsc-HAc [4]], the pH values compound is recorded as 4.22.

Consider `CC(=O)O.CC(=O)O.CC(=O)O.CC(=O)O.CC(=O)O.CC(=O)O.O=C1OC(C(O)CO)C([O-])=C1O.O=C1OC(C(O)CO)C([O-])=C1O.[Ca+2]` (stereo not shown) [CaAsc-HAc [6]], for which the pH values compound is 4.12.

Take `CCC(=O)O.CCC(=O)O.O=C1OC(C(O)CO)C([O-])=C1O.O=C1OC(C(O)CO)C([O-])=C1O.[Ca+2]` (stereo not shown) [CaAsc-HProp [2], calcium ascorbate with loaded propionic acid]: the pH values compound is given as 4.88.

`CC(=O)O.CC(=O)O.NC(CC(=O)[O-])C(=O)[O-].[Ca+2]` (stereo not shown) [CaAsp-HAc [2]] came in with a pH values compound of 4.42.

`NC(CC(=O)[O-])C(=O)[O-].O=C(O)CO.O=C(O)CO.[Ca+2]` (stereo not shown) [CaAsp-HGly [2]]: the pH values compound is 3.88.

`CC(=O)O.CC(=O)O.O=C([O-])c1ccccc1.O=C([O-])c1ccccc1.[Ca+2]` [CaBen-HAc [2]] returned a pH values compound of 4.46.

`CCC(=O)O.CCC(=O)O.O=C([O-])c1ccccc1.O=C([O-])c1ccccc1.[Ca+2]` [CaBen-HProp [2]] displayed a pH values compound of 4.64.

The molecule `CC(=O)O.CC(=O)O.O=C[O-].O=C[O-].[Ca+2]` [CaFo-HAc [2]] showed a pH values compound of 4.74.

`CC(=O)O.CC(=O)O.O=C([O-])/C=C/C(=O)[O-].[Ca+2]` [CaFum-HAc [2]] displayed a pH values compound of 4.17.

With `O=C([O-])/C=C/C(=O)[O-].O=CO.O=CO.[Ca+2]` [CaFum-HFo [2]], the pH values compound amounted to 3.58.

Take `CC(O)C(=O)O.CC(O)C(=O)O.O=C([O-])/C=C/C(=O)[O-].[Ca+2]` [CaFum-HLac [2]]: the pH values compound was 3.68.

`CCC(=O)O.CCC(=O)O.O=C([O-])/C=C/C(=O)[O-].[Ca+2]` [CaFum-HProp [2]] yielded a pH values compound of 4.27.

In turn, `CC(=O)O.CC(=O)O.NC(CCC(=O)[O-])C(=O)[O-].[Ca+2]` (stereo not shown) [CaGlu-HAc [2]] gave a pH values compound of 4.52.

Turning to `CC(O)C(=O)O.CC(O)C(=O)O.CC(O)C(=O)O.CC(O)C(=O)O.NC(CCC(=O)[O-])C(=O)[O-].[Ca+2]` (stereo not shown) [CaGlu-HLac [4]], the pH values compound was determined as 3.60.

With `CCC(=O)O.CCC(=O)O.O=C([O-])CO.O=C([O-])CO.[Ca+2]` [CaGly-HProp [2]], the pH values compound is given as 4.63.

`CC(=O)O.CC(=O)O.CC(O)C(=O)[O-].CC(O)C(=O)[O-].[Ca+2]` (stereo not shown) [CaLac-HAc [2]] had a pH values compound of 4.58.

For `CC(O)C(=O)O.CC(O)C(=O)O.CC(O)C(=O)[O-].CC(O)C(=O)[O-].[Ca+2]` (stereo not shown) [CaLac-HLac [2]], the pH values compound is 3.45.

Turning to `CC(O)C(=O)O.CC(O)C(=O)O.CC(O)C(=O)O.CC(O)C(=O)[O-].CC(O)C(=O)[O-].[Ca+2]` (stereo not shown) [CaLac-HLac [3]], the pH values compound came to 3.38.

Regarding `CC(O)C(=O)O.CC(O)C(=O)O.CC(O)C(=O)O.CC(O)C(=O)O.CC(O)C(=O)[O-].CC(O)C(=O)[O-].[Ca+2]` (stereo not shown) [CaLac-HLac [4]], the pH values compound is recorded as 3.30.

Consider `CCC(=O)O.CCC(=O)O.O=C([O-])CC(O)C(=O)[O-].[Ca+2]` (stereo not shown) [CaM-HProp [2]], for which the pH values compound amounted to 4.45.

In turn, `CC(=O)O.CC(=O)O.O=C([O-])CC(O)C(=O)[O-].[Ca+2]` (stereo not shown) [CaMa-HAc [2]] yielded a pH values compound of 4.53.

With `CC(=O)O.CC(O)C(=O)O.CCC(=O)O.O=C([O-])CC(O)C(=O)[O-].[Ca+2]` (stereo not shown) [CaMa-HAc-HProp-HLac [1,1,1]], the pH values compound was 4.97.

With `CC(=O)O.CC(=O)O.O=C([O-])CCC(=O)[O-].[Ca+2]` [CaSuc-HAc [2]], the pH values compound is on record as 4.69.

`CCC(=O)O.CCC(=O)O.O=C([O-])CCC(=O)[O-].[Ca+2]` [CaSuc-HProp [2]] came in with a pH values compound of 5.01.

In turn, `CC(=O)O.CC(=O)O.CC(=O)O.CC(=O)O.O=C([O-])C(O)C(O)C(=O)[O-].[Ca+2]` (stereo not shown) [CaT-HAc [4], calcium tartrate with loaded acetic acid] had a pH values compound of 3.33.

Molecule `CC(=O)O.CC(=O)O.CC(=O)O.CC(=O)O.CC(=O)O.O=C([O-])C(O)C(O)C(=O)[O-].[Ca+2]` (stereo not shown) [CaT-HAc [5]] displayed a pH values compound of 3.84.

Regarding `CC(=O)O.CC(O)C(=O)O.CCC(=O)O.O=C([O-])C(O)C(O)C(=O)[O-].[Ca+2]` (stereo not shown) [CaT-HAc-HPro-HLac [1,1,1]], the pH values compound was found to be 3.33.

`CC(O)C(=O)O.CC(O)C(=O)O.O=C([O-])C(O)C(O)C(=O)[O-].[Ca+2]` (stereo not shown) [CaT-HLac [2], calcium tartrate with loaded lactic acid] displayed a pH values compound of 3.27.

In the case of `CCC(=O)O.CCC(=O)O.O=C([O-])C(O)C(O)C(=O)[O-].[Ca+2]` (stereo not shown) [CaT-HProp [2], calcium tartrate with loaded propionic acid], the pH values compound is 3.71.

`CC(=O)O.CC(=O)O.CC(=O)[O-].CC(=O)[O-].[Mg+2]` [MgAc-HAc [2]] showed a pH values compound of 5.06.

In the case of `CC(=O)[O-].CC(=O)[O-].CCC(=O)O.CCC(=O)O.[Mg+2]` [MgAc-HProp [2]], the pH values compound is on record as 5.51.

`CC(=O)O.CC(=O)O.O=C1OC(C(O)CO)C([O-])=C1O.O=C1OC(C(O)CO)C([O-])=C1O.[Mg+2]` (stereo not shown) [MgAsc-HAc [2]]: the pH values compound was 4.34.

`CC(=O)O.CC(=O)O.O=C[O-].O=C[O-].[Mg+2]` [MgFo-HAc [2], magnesium formate with loaded acetic acid] displayed a pH values compound of 5.10.

`O=CO.O=CO.O=C[O-].O=C[O-].[Mg+2]` [MgFo-HFo [2]] came in with a pH values compound of 6.54.

Molecule `CC(O)C(=O)O.CC(O)C(=O)O.O=C[O-].O=C[O-].[Mg+2]` (stereo not shown) [MgFo-HLac [2]] registered a pH values compound of 3.72.

`CCC(=O)O.CCC(=O)O.O=C[O-].O=C[O-].[Mg+2]` [MgFo-HProp [2], magnesium formate with loaded propionic acid]: the pH values compound came to 4.84.

Molecule `CC(=O)O.CC(=O)O.O=C([O-])/C=C/C(=O)[O-].[Mg+2]` [MgFum-HAc [2]] came in with a pH values compound of 4.13.

Consider `O=C([O-])/C=C/C(=O)[O-].O=CO.O=CO.[Mg+2]` [MgFum-HFo [2]], for which the pH values compound came to 3.76.

On to `CC(O)C(=O)O.CC(O)C(=O)O.O=C([O-])/C=C/C(=O)[O-].[Mg+2]` [MgFum-HLac [2]], for which the pH values compound stood at 3.69.

In turn, `CCC(=O)O.CCC(=O)O.O=C([O-])/C=C/C(=O)[O-].[Mg+2]` [MgFum-HProp [2]] gave a pH values compound of 4.24.

`CC(=O)O.CC(=O)O.CC(O)C(=O)[O-].CC(O)C(=O)[O-].[Mg+2]` (stereo not shown) [MgLac-HAc [2]] displayed a pH values compound of 4.43.

On to `CC(=O)O.CC(O)C(=O)[O-].CC(O)C(=O)[O-].CCC(=O)O.[Mg+2]` (stereo not shown) [MgLac-HAc-HProp [1,1]], for which the pH values compound worked out at 4.48.

The molecule `CC(O)C(=O)O.CC(O)C(=O)O.CC(O)C(=O)[O-].CC(O)C(=O)[O-].[Mg+2]` (stereo not shown) [MgLac-HLac [2]] yielded a pH values compound of 3.31.

On to `CC(O)C(=O)[O-].CC(O)C(=O)[O-].CCC(=O)O.CCC(=O)O.[Mg+2]` (stereo not shown) [MgLac-HProp [2]], for which the pH values compound was found to be 4.45.

With `CC(=O)O.CC(=O)O.O=C([O-])CCC(=O)[O-].[Mg+2]` [MgSuc-HAc [2]], the pH values compound turned out to be 4.69.

`CCC(=O)O.CCC(=O)O.O=C([O-])CCC(=O)[O-].[Mg+2]` [MgSuc-HProp [2]] came in with a pH values compound of 5.18.

Still in this data set, the particulars now being: 0.1 M, r.t.
As to `O=C([O-])C(O)C(O)C(=O)[O-].[Ca+2]` (stereo not shown) [calcium tartrate, reference compound], the “pH value of the reference material (non-loaded carrier salt)” value amounted to 7.33.

On to `O=C[O-].O=C[O-].[Mg+2]` [magnesium formate, reference compound], for which the “pH value of the reference material (non-loaded carrier salt)” value came out at 7.90.

The data set is the same for the next values; noted with them: 0.1 M, r.t.; compound made via in-situ process.
As to `CC(=O)O.CC(=O)O.CC(=O)O.CC(=O)O.O=C([O-])C(O)C(O)C(=O)[O-].[Ca+2]` (stereo not shown) [CaT-HAc [4], calcium tartrate with loaded acetic acid], the pH value was found to be 3.33.

With `CC(O)C(=O)O.CC(O)C(=O)O.O=C([O-])C(O)C(O)C(=O)[O-].[Ca+2]` (stereo not shown) [CaT-HLac [2], calcium tartrate with loaded lactic acid], the pH value came out at 3.27.

On to `CC(=O)O.CC(=O)O.O=C[O-].O=C[O-].[Mg+2]` [MgFo-HAc [2], magnesium formate with loaded acetic acid], for which the pH value is given as 5.10.

Another data set in a line: Thermal analysis (TGA/DTA). The format is physicochemical.
Conditions: not given
As for the experimental part: Thermal analysis was carried out with a Linseis STA 1600 simultaneous thermal analyzer to determine simultaneous changes of weight (TGA signal) and caloric measurable transformations (DTA signal) in a temperature range between r.t. and 300° C.
Take `CCC(=O)O.CCC(=O)O.O=C[O-].O=C[O-].[Mg+2]` [MgFo-HProp [2], magnesium formate with loaded propionic acid]: the “thermal stability of the carrier carboxylic acid salt” value is “up to 300 °C”.

The data set is the same for the next values; noted with them: constant heating, 1° C. to 300° C., FIG. 4(A).
In the case of `CCC(=O)O.CCC(=O)O.O=C[O-].O=C[O-].[Mg+2]` [MgFo-HProp [2], magnesium formate with loaded propionic acid], the “water release on heating (TGA)” value was “no water is released”.

The data set is the same for the next values; noted with them: dry sample, heating in the range of 125° C. to 200° C., 2 K/min, nitrogen.
For `CCC(=O)O.CCC(=O)O.O=C[O-].O=C[O-].[Mg+2]` [MgFo-HProp [2], magnesium formate with loaded propionic acid], the “total loss of weight (TGA)” value is recorded as 24.4%.
